Assay results taken from paper PMC5431432, “Low-basicity 5-HT7 Receptor Agonists Synthesized Using the van Leusen Multicomponent Protocol” (Scientific Reports, 2017).
“Also recorded” adds a separate entry of the source. Read-outs that look alike come from different tables or passages of the source.

Legend:
human serotonin 5-HT7bR = human serotonin 5-HT7bR (Homo sapiens, UniProt P34969); test: Radioligand binding, [3H]-5-CT displacement
[1] = biological target: T1, human serotonin 5-HT2A receptor (Homo sapiens, UniProt P28223); test: Radioligand binding, [3H]-ketanserin displacement
T1 construct: host or cells: CHO-K1

human dopamine D2LR = human dopamine D2LR (Homo sapiens, UniProt P14416); test: Radioligand binding, [3H]-raclopride displacement
human serotonin 5-HT6R = human serotonin 5-HT6R (Homo sapiens, UniProt P50406); test: Radioligand binding, [3H]-LSD displacement
human serotonin 5-HT1AR = biological target: T2, human serotonin 5-HT1AR (Homo sapiens, UniProt P08908); test: Radioligand binding, [3H]-8-OH-DPAT displacement
T2 sequence (P08908 1-422): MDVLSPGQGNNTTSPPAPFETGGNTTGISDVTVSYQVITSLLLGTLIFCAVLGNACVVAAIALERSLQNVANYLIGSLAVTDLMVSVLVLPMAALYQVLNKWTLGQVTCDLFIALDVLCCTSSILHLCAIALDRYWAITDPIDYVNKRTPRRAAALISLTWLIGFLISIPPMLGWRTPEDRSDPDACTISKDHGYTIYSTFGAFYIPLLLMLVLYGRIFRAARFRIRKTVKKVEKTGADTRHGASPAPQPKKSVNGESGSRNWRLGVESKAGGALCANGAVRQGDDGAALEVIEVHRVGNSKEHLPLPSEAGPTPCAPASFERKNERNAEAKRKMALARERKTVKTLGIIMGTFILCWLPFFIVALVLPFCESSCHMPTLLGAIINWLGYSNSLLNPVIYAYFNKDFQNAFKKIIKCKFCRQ

human 5-HT7 receptor = human 5-HT7 receptor (Homo sapiens, UniProt P34969); test: Functional assay, cAMP production (TR-FRET) in HEK293 cells overexpressing 5-HT7R; format: cell-based; conditions: for EC50: hydrochloride salts
HEK-293 cells = test: MTS cytotoxicity assay HEK-293; format: cell-based, human; conditions: 72 h incubation, 0.1–100 μM
Experimental: (§1) The cell line was cultured in Dulbecco’s Modified Eagle’s Medium DMEM (Gibco) with 10% fetal bovine
(§2) The cells were cultured in Modified Eagle’s Medium
(§3) MEM with 100 mg/ml streptomycin and 100 U/ml penicillin, 1%, Non Essential Amino Acids (NEAA) and
(§4) solutions of examined compounds in DMSO were diluted into fresh growth medium and added into the
(§5) microplates at the final concentrations 0.1 μM – 100 μM. The well-known cytostatic compound
(§6) doxorubicin (DX) 1 μM was used as a positive control for both cell lines. Additionally, carbonyl cyanide
(§7) 3-chlorophenylhydrazone (CCCP) 10 μM was used as positive control mitochondrial toxin for hepatocytes.
(§8) Proliferation Assay, Promega) was added to the each well and the cells were incubated under the same
(§9) conditions for 4 h. The absorbance of the samples was measured using a microplate reader (PerkinElmer) at

[2] = Pharmacokinetics after i.p. administration in mice; format: in vivo, CD-1 mice
Experimental: A group of 32 adult male mice (CD-1, 18-21 g) were used in the experiment.
During the habituation period the groups of 4 mice were kept in a plastic cage (252 mm x 167 cm x
140 cm) at a controlled room temperature (22±2°C), humidity (55±10%), full spectrum cold white light
access to standard laboratory pellet and tap water.
administered by an intraperitoneal (i.p.) administration at a dose of 5 mg/kg. Blood samples were collected
administration. The blood and brain samples were collected under general anesthesia induced by i.p.
injections of 50 mg/kg ketamine plus 8 mg/kg xylazine. The blood samples were taken into heparinized
tubes, immediately centrifuged at 3500 rpm for 10 min and plasma was collected. The brain and plasma
samples were immediately frozen at - 80°C for LC/MS/MS analysis.
Pharmacokinetic parameters were calculated by a non-compartmental approach from the average
elimination rate constant (λz) was calculated by linear regression of time versus log concentration. Next, the
area under the mean serum and tissue concentration versus time curve (AUC0→t) was estimated using the
log-linear trapezoidal rule (Eq. 1), where Cn is the concentration of last sampling of each compound.
Area under the first-moment curve (AUMC0→t) was estimated by calculation of the total area under the
first-moment curve using the equation 2, where tn is the time of last sampling.
Mean residence time (MRT) was calculated as:
Total clearance (ClT) was calculated as:
Volume of distribution (Vd) was calculated as:
The quantification of studied compound in plasma and brain samples was done using UPLC Agilent 1100
system (Agilent Technologies, Waldbronn, Germany) coupled to the triple quadrupole mass spectrometer
API 2000 (ABSciex, Framingham, Massachusetts, USA) equipped with electrospray ion source. After
Milford, Massachusetts, USA) analytical column. The mobile phase consisted of ACN with 0.1% formic
acid (A) and water with 0.1% formic acid (B) were delivered in gradient elution started with 90% of eluent
B, increasing during 2 min to 90% of eluent A, maintained to 3 min, and then returned during 5 min to 90% of
eluent B, and maintained 90% of eluent B during 5 min at a flow rate of 300 µL/min. The total time of
analysis was 10 min. Electrospray ionization process was performed in positive ionization and the data
(nebivolol). The ion spray source settings were as follows: spray voltage: 5.5 kV, heater temperature:
400°C, curtain gas: 20 psi, source gas 1: 40 psi, source gas 2: 20 psi.

[3] = Metabolic stability in human liver microsomes; format: in vitro ADME; conditions: human, read-out: Clint, metabolic clearance
Experimental: The in vitro evaluation of metabolic stability was performed by using human liver microsomes
(HLMs) (Sigma-Aldrich, St. Louis, MO, USA). The reaction mixtures consisted of 50 μM of tested
compounds with microsomes (1 mg/ml) in 10 mM tris-HCl buffer.
preincubation, the 50 µL of NADPH Regeneration System (Promega, Madison, WI, USA) was
added to initiate the reaction. The reactions were terminated by the addition of the cold methanol
The mixtures were centrifuged
The course of reaction was followed by using the
analyte/IS peak height ratio values.
Mass spectra were recorded on a UPLC-MS/MS system consisted of a Waters ACQUITY® UPLC® (Waters Corporation, Milford, MA, USA) coupled to a Waters TQD mass spectrometer
(electrospray ionization mode ESI-tandem quadrupole). Chromatographic separations were carried
particle size, equipped with Acquity UPLC BEH C18 VanGuard pre-column; 2.1 × 5 mm, and
The column was maintained at 40 °C, and eluted under gradient conditions
acid (0.1%, v/v); eluent B: acetonitrile/formic acid (0.1%, v/v). Chromatograms were made using
sampling rate 20 points/s. MS detection settings of Waters TQD mass spectrometer were as
600 L h−1, cone gas flow 100 L h−1, capillary potential 3.00 kV, cone potential 40 V. Nitrogen was
used for both nebulizing and drying gas. The data were obtained in a scan mode ranging from 50 to
2000 m/z in time 1.0 s intervals. Data acquisition software was MassLynx V 4.1 (Waters). The

HepG2 cells = test: MTS cytotoxicity assay HepG2; format: cell-based; conditions: 72 h incubation, 0.1–100 μM
Experimental: as §1, §2, §3, §4, §5, §6, §7, §8, §9

5-HT2B = biological target: T3, 5-HT2B (Homo sapiens, UniProt P41595); test: Eurofins Cerep binding screen 5-HT2B; conditions: read-out: % Inhibition of control binding 5-HT2B
T3 construct: Eurofins Cerep (contract screen)

[4] = test system: MK-801 induced impairment in novel object recognition; test: Novel object recognition test, reversal of MK-801 induced impairment; design: species or system Albino Swiss mice; conditions: mouse, in vivo
Experimental: The experiment was conducted on Albino Swiss mice (see Supporting Information).
trained and tested in a black, plastic, open field (50 × 30 cm, 35 cm high) with the floor divided into 20-cm
The open field was in a dark room illuminated only by a 25 W bulb. On the first day
(adaptation) the animals were allowed to explore the open field for 10 min. On the next day (training, T1) the
animals were administered the tested drugs, placed in the apparatus and allowed to explore two identical
objects (cylindrical objects with walls painted white, 7 cm in diameter, 11 cm high) for the time required to
complete 15 s of exploration of either object. For the retention trial (T2) conducted one h later, one of the
objects presented in T1 was replaced with a novel object (a prism-shaped object with walls painted black,
5 cm wide, 14 cm high). The duration of exploration of each object (i.e., sitting in close proximity to the
objects or sniffing or touching them) during 5 min time was video recorded and measured separately by a
trained observer. All drugs were administered before the training (T1) session.

5-HT5A = biological target: T4, 5-HT5A (Homo sapiens, UniProt P47898); test: Eurofins Cerep binding screen 5-HT5A; conditions: 10^−6 M; read-out: % Inhibition of control binding 5-HT5A
T4 construct: Eurofins Cerep (contract screen)

CYP3A4 = CYP3A4 (Homo sapiens, UniProt P08684); test: biochemical
Experimental: Drug-drug interactions (DDI) – the influence on CYP3A4 activity
The luminescent CYP3A4 P450-Glo™ assay and protocol were provided by Promega (Madison, WI, USA)
was obtained from Sigma-Aldrich (St. Louis, USA). The enzymatic reactions were performed in white
polystyrene, flat-bottom Nunc™ MicroWell™ 96-Well Microplates (Thermo Scientific, Waltham, MA
USA). The luminescence signal was measured with a microplate reader in luminescence mode (EnSpire,
PerkinElmer, Waltham, MA USA).
The final concentrations of 1e and
to calculate IC50 values.

5-HT1B = biological target: T5, 5-HT1B (Homo sapiens, UniProt P28222); test: Eurofins Cerep binding screen 5-HT1B; conditions: 10^−6 M; read-out: % Inhibition of control binding 5-HT1B
T5 construct: Eurofins Cerep (contract screen)

[5] = Water solubility (statement); format: physicochemical
[6] = Fig. 2, read-out: pKi 5-HT2A (converted)
[7] = Fig. 2, read-out: pKi D2 (converted)
[8] = Fig. 2, read-out: pKi 5-HT6 (converted)
[9] = Fig. 2, read-out: pKi 5-HT1A (converted)
[10] = Fig. 2, read-out: pKi 5-HT7 (converted)

human 5-HT7 receptor, sequence (P34969 1-432 limits assumed): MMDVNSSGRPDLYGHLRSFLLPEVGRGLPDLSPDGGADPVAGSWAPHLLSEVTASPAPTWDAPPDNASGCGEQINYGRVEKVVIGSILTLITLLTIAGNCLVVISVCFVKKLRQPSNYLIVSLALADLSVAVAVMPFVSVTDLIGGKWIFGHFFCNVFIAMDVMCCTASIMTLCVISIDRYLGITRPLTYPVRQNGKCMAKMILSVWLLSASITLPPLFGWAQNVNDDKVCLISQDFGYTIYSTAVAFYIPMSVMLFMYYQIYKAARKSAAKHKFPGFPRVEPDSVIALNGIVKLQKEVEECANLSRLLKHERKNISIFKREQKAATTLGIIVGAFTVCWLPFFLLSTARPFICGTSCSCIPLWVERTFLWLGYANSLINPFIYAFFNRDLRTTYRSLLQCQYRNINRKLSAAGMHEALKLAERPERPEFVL
human serotonin 5-HT7bR, sequence (P34969 1-432 limits assumed): as above
T1 sequence (P28223 whole entry): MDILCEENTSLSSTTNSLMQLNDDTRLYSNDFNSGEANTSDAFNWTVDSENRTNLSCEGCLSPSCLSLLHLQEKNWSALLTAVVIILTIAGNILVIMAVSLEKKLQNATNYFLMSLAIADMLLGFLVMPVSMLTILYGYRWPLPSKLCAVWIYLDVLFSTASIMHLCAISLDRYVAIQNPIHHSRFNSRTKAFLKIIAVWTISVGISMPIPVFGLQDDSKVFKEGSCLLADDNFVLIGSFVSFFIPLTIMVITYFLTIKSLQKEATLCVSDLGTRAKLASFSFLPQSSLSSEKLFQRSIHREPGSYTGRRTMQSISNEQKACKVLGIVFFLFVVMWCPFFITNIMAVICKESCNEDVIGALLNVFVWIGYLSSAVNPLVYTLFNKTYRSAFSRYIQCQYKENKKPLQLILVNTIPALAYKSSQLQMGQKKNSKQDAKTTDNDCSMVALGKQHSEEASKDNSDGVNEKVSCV
human dopamine D2LR, sequence (P14416 whole entry): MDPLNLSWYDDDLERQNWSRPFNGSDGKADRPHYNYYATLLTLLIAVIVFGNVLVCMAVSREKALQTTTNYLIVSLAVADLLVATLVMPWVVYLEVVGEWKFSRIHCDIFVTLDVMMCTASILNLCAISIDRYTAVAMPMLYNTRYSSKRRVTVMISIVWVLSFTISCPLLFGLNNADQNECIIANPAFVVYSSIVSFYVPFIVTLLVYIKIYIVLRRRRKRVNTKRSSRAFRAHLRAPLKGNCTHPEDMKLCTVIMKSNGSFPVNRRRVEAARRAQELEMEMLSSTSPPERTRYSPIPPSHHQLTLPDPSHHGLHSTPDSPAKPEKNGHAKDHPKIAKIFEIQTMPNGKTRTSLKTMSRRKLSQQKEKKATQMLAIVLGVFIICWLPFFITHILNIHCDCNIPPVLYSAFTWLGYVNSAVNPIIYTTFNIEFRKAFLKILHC
human serotonin 5-HT6R, sequence (P50406 whole entry): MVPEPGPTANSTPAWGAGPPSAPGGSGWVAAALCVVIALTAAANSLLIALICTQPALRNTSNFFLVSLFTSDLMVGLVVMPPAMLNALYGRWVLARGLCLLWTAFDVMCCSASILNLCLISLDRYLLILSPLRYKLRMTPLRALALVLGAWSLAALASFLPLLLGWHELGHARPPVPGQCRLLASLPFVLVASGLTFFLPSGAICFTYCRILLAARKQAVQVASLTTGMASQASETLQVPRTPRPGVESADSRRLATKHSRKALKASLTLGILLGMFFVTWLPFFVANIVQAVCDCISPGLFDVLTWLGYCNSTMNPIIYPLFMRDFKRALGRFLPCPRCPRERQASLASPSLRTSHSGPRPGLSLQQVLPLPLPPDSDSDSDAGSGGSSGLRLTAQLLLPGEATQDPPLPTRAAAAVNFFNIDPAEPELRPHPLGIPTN
T3 sequence (P41595 whole entry, species assumed): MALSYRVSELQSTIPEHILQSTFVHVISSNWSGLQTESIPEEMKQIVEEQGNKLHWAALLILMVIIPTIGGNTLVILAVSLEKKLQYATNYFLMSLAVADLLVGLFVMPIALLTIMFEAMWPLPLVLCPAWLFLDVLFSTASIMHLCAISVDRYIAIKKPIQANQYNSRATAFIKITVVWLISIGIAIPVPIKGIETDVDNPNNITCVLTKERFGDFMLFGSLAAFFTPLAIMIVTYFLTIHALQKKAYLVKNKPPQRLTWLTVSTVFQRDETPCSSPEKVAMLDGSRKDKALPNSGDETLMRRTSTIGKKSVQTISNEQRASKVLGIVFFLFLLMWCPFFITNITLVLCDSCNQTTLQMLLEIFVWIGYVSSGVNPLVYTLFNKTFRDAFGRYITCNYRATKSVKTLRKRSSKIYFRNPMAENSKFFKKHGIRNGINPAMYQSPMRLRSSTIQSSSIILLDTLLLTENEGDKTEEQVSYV
T4 sequence (P47898 whole entry, species assumed): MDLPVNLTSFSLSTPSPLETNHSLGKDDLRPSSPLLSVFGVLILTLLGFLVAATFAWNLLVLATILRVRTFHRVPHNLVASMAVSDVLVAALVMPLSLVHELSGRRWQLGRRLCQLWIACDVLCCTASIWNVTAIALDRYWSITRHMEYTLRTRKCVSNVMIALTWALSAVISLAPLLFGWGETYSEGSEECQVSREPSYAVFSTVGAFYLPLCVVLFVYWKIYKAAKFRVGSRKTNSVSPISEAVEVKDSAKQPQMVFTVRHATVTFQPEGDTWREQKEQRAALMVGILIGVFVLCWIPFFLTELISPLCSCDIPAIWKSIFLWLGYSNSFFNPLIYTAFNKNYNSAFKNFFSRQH
CYP3A4, sequence (P08684 whole entry): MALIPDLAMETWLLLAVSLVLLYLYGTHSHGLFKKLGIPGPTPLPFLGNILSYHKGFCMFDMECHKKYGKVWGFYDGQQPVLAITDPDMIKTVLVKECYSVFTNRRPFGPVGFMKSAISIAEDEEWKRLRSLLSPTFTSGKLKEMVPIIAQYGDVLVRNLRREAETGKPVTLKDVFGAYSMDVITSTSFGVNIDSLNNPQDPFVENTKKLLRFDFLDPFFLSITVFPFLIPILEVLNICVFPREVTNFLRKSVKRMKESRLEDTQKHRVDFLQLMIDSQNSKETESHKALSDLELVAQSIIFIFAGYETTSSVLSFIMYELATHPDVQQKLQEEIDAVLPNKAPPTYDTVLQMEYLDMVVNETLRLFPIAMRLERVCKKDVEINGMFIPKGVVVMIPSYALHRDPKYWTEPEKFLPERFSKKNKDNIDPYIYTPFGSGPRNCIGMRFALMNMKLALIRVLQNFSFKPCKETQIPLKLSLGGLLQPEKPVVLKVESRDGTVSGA
T5 sequence (P28222 whole entry, species assumed): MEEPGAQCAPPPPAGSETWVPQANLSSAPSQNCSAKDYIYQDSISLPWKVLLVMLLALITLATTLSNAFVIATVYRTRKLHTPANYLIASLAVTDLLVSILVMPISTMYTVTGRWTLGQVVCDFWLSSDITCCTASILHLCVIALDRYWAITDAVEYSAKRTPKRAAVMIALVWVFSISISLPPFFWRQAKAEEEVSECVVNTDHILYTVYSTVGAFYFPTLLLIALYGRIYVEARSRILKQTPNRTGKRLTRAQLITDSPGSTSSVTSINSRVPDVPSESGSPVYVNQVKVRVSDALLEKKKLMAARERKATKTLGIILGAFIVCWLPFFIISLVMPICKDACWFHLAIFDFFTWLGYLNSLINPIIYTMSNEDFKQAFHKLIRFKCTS

Cn1cc(CCN)c2ccccc21 [1-methyltryptamine, reference compound]
Ki (human serotonin 5-HT7bR): 4830 nM
Ki [1]: 6.59 µM
Ki (human dopamine D2LR): 6.54 µM
Ki (human serotonin 5-HT6R): 3.62 µM
Ki (human serotonin 5-HT1AR): 2.39 µM

Cn1cncc1-c1c[nH]c2ccccc12 [1a]
selectivity over 5-HT1AR (human serotonin 5-HT7bR): > 11 fold
Ki (human serotonin 5-HT7bR; read-out: Ki 5-HT7): 385 nM
Ki [1, 6]: 6.92 µM
melting point: 88 to 90 °C
Ki (human dopamine D2LR; [7]): 6.92 µM
Ki (human serotonin 5-HT6R; [8]): 3.39 µM
Ki (human serotonin 5-HT1AR; [9]): 4.47 µM

COc1ccc2[nH]cc(-c3cncn3C)c2c1 [1b]
function at the human 5-HT7 receptor (human 5-HT7 receptor): full agonists
EC50 (human 5-HT7 receptor): 0.15 µM
selectivity over 5-HT1AR (human serotonin 5-HT7bR): > 11 fold
Ki (human serotonin 5-HT7bR; Table 1, the head of this column prints no unit, nM, read-out: K i (5-HT7R)): 55 nM
Ki [1, 6]: 3.39 µM
melting point: 236 °C
Ki (human dopamine D2LR; [7]): > 10 µM
Ki (human serotonin 5-HT6R; [8]): 2.4 µM
Ki (human serotonin 5-HT1AR; [9]): 0.851 µM

CCn1cncc1-c1cn(C)c2ccccc12 [1c]
Ki (human serotonin 5-HT7bR; read-out: Ki 5-HT7): 5620 nM
Ki [1, 6]: > 10 µM
Ki (human dopamine D2LR; [7]): > 10 µM
Ki (human serotonin 5-HT6R; [8]): 7.76 µM
Ki (human serotonin 5-HT1AR; [9]): > 10 µM

CCn1cncc1-c1cn(C)c2ccc(OC)cc12 [1d]
Ki (human serotonin 5-HT7bR; read-out: Ki 5-HT7): > 10000 nM
Ki [1, 6]: > 10 µM
Ki (human dopamine D2LR; [7]): > 10 µM
Ki (human serotonin 5-HT6R; [8]): 5.5 µM
Ki (human serotonin 5-HT1AR; [9]): 5.01 µM

CCCn1cncc1-c1c[nH]c2ccc(OC)cc12 [1f]
Ki (human serotonin 5-HT7bR; [10]): 64.6 nM
Ki [1, 6]: 4.27 µM
Ki (human dopamine D2LR; [7]): > 10 µM
Ki (human serotonin 5-HT6R; [8]): > 10 µM
Ki (human serotonin 5-HT1AR; [9]): > 10 µM

CCCCn1cncc1-c1c[nH]c2ccc(OC)cc12 [1g]
Ki (human serotonin 5-HT7bR; [10]): 324 nM
Ki [1, 6]: 6.17 µM
Ki (human dopamine D2LR; [7]): > 10 µM
Ki (human serotonin 5-HT6R; [8]): 5.89 µM
Ki (human serotonin 5-HT1AR; [9]): 0.661 µM

COc1ccc2[nH]cc(-c3cncn3C3CC3)c2c1 [1h]
binding to 5-HT7R in words (human serotonin 5-HT7bR): non-active
Ki (human serotonin 5-HT7bR; [10]): 3310 nM
Ki [1, 6]: > 10 µM
Ki (human dopamine D2LR; [7]): > 10 µM
Ki (human serotonin 5-HT6R; [8]): 5.25 µM
Ki (human serotonin 5-HT1AR; [9]): 1.29 µM

C=CCn1cncc1-c1c[nH]c2ccc(OC)cc12 [1i]
Ki (human serotonin 5-HT7bR; [10]): 135 nM
Ki [1, 6]: > 10 µM
Ki (human dopamine D2LR; [7]): > 10 µM
Ki (human serotonin 5-HT6R; [8]): 5.75 µM
Ki (human serotonin 5-HT1AR; [9]): 0.537 µM

CCn1cncc1-c1c[nH]c2cc(Br)ccc12 [1j]
binding to 5-HT7R in words (human serotonin 5-HT7bR): low affinity
Ki (human serotonin 5-HT7bR; [10]): > 10000 nM
Ki [1, 6]: > 10 µM
Ki (human dopamine D2LR; [7]): > 10 µM
Ki (human serotonin 5-HT6R; [8]): 6.92 µM
Ki (human serotonin 5-HT1AR; [9]): > 10 µM

CCn1cncc1-c1c[nH]c2cccc(Br)c12 [1k]
binding to 5-HT7R in words (human serotonin 5-HT7bR): low affinity
Ki (human serotonin 5-HT7bR; [10]): 2290 nM
Ki [1, 6]: > 10 µM
Ki (human dopamine D2LR; [7]): > 10 µM
Ki (human serotonin 5-HT6R; [8]): 8.71 µM
Ki (human serotonin 5-HT1AR; [9]): > 10 µM

CCn1cncc1-c1c[nH]c2ccc(F)cc12 [1l]
Ki (human serotonin 5-HT7bR; read-out: Ki 5-HT7): 302 nM

CCn1cncc1-c1c[nH]c2ccc(Cl)cc12 [1m]
function at the human 5-HT7 receptor (human 5-HT7 receptor): full agonists
EC50 (human 5-HT7 receptor): 0.149 µM
Ki (human serotonin 5-HT7bR; read-out: K i (5-HT7R)): 42 nM

CCn1cncc1-c1c[nH]c2ccc(Br)cc12 [1n]
function at the human 5-HT7 receptor (human 5-HT7 receptor): full agonists
EC50 (human 5-HT7 receptor): 0.154 µM
Ki (human serotonin 5-HT7bR; read-out: K i (5-HT7R)): 20 nM

CCn1cncc1-c1c[nH]c2ccc(I)cc12 [1o, 3-(1-ethyl-1H-imidazol-5-yl)-5-iodo-1H-indole]
cell viability in words, HEK-293 (HEK-293 cells): toxic for the cells only in the highest concentration (100 μM)
blood/plasma ratio compared to LP-44 ([2]; 1o 5 mg/kg i.p. vs LP-44 10 mg/kg i.p.): three-fold higher
brain/plasma ratio compared to LP-211 ([2]; 1o 5 mg/kg i.p. vs LP-211 10 mg/kg i.p.): 9 times
Cmax brain ([2]; i.p. 5 mg/kg): 2723 ng/g
Cmax brain (molar) ([2]; i.p. 5 mg/kg): approx. 8 μM
maximum plasma concentration ([2]; i.p. 5 mg/kg): 749 ng/mL
maximum plasma concentration (molar) ([2]; i.p. 5 mg/kg): ~ 2.2 μM
time in which half of the compound was eliminated from the body ([2]; i.p. 5 mg/kg): ≤ 90 min
t0.5 brain ([2]; i.p. 5 mg/kg, brain): 130 min
last sampling time at which measurable ([2]; i.p. 5 mg/kg, plasma and brain): 6 h
MRT ([2]; male, CD-1, mouse, brain, ip, i.p. 5 mg/kg, read-out: MRT brain (converted)): 60 min
Kp ([2]; male, CD-1, mouse, brain/plasma, ip, i.p. 5 mg/kg, read-out: brain to plasma ratio): 6.34
Tmax ([2]; male, CD-1, mouse, ip, i.p. 5 mg/kg, plasma): 15 min
Vd/F ([2]; male, CD-1, mouse, plasma, ip, i.p. 5 mg/kg): 46.6 L/kg
MRT ([2]; male, CD-1, mouse, plasma, ip, i.p. 5 mg/kg, read-out: MRT plasma (converted)): 27 min
CLint scaled at 50 μM [3]: 0.378 L/h/kg
function at the human 5-HT7 receptor (human 5-HT7 receptor): full agonists
EC50 (human 5-HT7 receptor): 0.019 µM
cell viability in words, HepG2 (HepG2 cells): toxic for the cells only in the highest concentration (100 μM)
inhibition at 1 µM (5-HT2B; 10^−6 M (1 µM)): 87%
inhibition at 0.01 µM (5-HT2B; 10^−8 M (10 nM)): 7%
reversal of MK-801 induced disruption in novel object recognition [4]: active; also recorded: dose-dependently reversed MK-801-induced disruption in novel object recognition; also recorded: reversed MK-801 induced novel object recognition impairment
selectivity over 5-HT1AR (human serotonin 5-HT7bR): 176 fold
Ki (human serotonin 5-HT7bR; read-out: K i (5-HT7R)): 6 nM
inhibition at 1 µM (5-HT5A): 7%
IC50 (CYP3A4): 0.17 µM
inhibition at 1 µM (5-HT1B): 40%
water solubility in words [5]: water soluble

CCn1cncc1-c1c[nH]c2ccc(C#N)cc12 [1p]
Ki (human serotonin 5-HT7bR; [10]): 2510 nM
Ki [1, 6]: > 10 µM
Ki (human dopamine D2LR; [7]): > 10 µM
Ki (human serotonin 5-HT6R; [8]): > 10 µM
Ki (human serotonin 5-HT1AR; [9]): > 10 µM
